We go through ten molecules from patent US20260356814A1, “INDOLINE DERIVATIVES AS SEROTONERGIC AGENTS USEFUL FOR THE TREATMENT OF DISORDERS RELATED THERETO” (MINDSET PHARMA INC., priority 2022, published 2026).

One data set deals with human 5-HT2A receptor (Homo sapiens, UniProt P28223). Kind of data set: Human 5-HT2A: Radioligand binding assay ([3H]-ketanserin). The note with it: [3H]-ketanserin displacement, 27° C., 90 min, pH 7.4; read-out: h5-HT2A, IC50. How it is done:
Exemplary compounds of Formula I were evaluated functionally using FLIPR assay for their effect on h5-HT2A receptor under agonist mode. The objective of this study was to evaluate the binding properties of exemplary compounds of Formula I on 5-hydroxytryptamine receptor 2A (5-HT2A). • Human 5-HT2A: Radioligand binding assay:
• i. The assay buffer was prepared following the table below.
• Adjust pH to 7.4 followed by […] sterile filtration • ii. 8 doses of reference and test compounds starting from 10 mM stock solution as required was prepared by 5-fold serial dilutions with 100% (v/v) DMSO. • iii. UniFilter-96 GF/B plate was pretreated: • a. 50 μl/well of 0.5% (v/v) PEI was added to UniFilter-96 […] plates. The plates were sealed and incubated at 4° C. for 3 hrs. • b. After incubation, the plates were washed 3 times with ice-cold wash buffer (50 mM Tris, pH7.4). • iv. The assay plate was prepared: • a. Cell membrane was diluted with assay buffer and 330 μl/well was added to 96 round deep well plates to reach a concentration of 20 μg/well. • b. 8 concentrations of reference or test compounds were prepared and 110 μl/well was added to 96 round deep well plates. • c. [3H]-ketanserin was diluted with assay buffer to 5 nM (5X final concentration) and 110 μl/well was added to 96 round deep well plates. • v. The plate was centrifuged at 1000 rpm for 30 secs and then agitated at 600 rpm, R.T. for 5 min. • vi. The plates were sealed and the plate incubated at 27° C. for 90 min. • vii. The incubation was stopped by vacuum filtration onto GF/B filter plates followed by 4 times washing with ice-cold wash buffer (50 mM Tris, pH7.4). • viii. The plates were dried at 37° C. for 45 min. • ix. The filter plates were sealed and 40 μl/well of scintillation cocktail was added. • x. The plate was read by using a Microbeta2 microplate counter.
• 1. For reference and test compounds, the results were expressed as % Inhibition, using the normalization equation: N=100−100×(U−C2)/(C1-C2), where U is the unknown value, C1 is the average of high controls, and C2 is the average of low controls. • 2. The IC50 was determined by fitting percentage of inhibition as a function of compound concentrations with Hill equation using XLfit.

For the next data set, the target named is T1, human 5-HT1A receptor (Homo sapiens, UniProt P08908).
T1 construct: expressed in transfected cells; host or cells: CHO (HTR1A&Ga15-CHO)
T1 sequence (P08908 1-422): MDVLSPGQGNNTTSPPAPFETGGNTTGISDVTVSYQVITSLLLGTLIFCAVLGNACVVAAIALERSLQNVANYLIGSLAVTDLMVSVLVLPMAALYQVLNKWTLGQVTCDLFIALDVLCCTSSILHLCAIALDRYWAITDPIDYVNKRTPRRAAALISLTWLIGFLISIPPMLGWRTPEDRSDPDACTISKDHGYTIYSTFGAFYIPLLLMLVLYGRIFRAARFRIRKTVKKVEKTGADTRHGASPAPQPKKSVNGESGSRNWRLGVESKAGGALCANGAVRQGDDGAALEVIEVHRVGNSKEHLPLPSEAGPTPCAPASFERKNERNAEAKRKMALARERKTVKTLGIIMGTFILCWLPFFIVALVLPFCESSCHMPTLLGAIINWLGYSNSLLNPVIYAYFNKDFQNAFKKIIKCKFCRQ
Description: Human 5-HT1A: Radioligand binding assay ([3H]-8-Hydroxy-DPAT). The note with it: [3H]-8-Hydroxy-DPAT displacement, 27° C., 90 min, pH 7.4; read-out: h5-HT1A, IC50. On the procedure:
The objective of this study was to evaluate the binding properties of test compounds on 5-hydroxytryptamine receptor 1A (5-HT1A).
• 1. The assay buffer was prepared following the table below.
• 2. 8 doses of reference and test compounds were prepared starting from 10 mM stock solution as required by 5-fold serial dilutions with 100% (v/v) DMSO. • 3. UniFilter-96 GF/B plate was pretreated: • i. 50 μl/well of 0.5% (v/v) PEI was added to UniFilter-96 GF/B plates. The plates were sealed and incubated at 4° C. for 3 hrs. • ii. After incubation, the plates were washed 3 times with ice-cold wash buffer (50 mM Tris, pH7.4). • 4. Assay plate was prepared: • i. Cell membrane was diluted with assay buffer and 100 μl/well was added to 96 round well plates to reach a concentration of 20 μg/well. • ii. 8 concentrations of reference or test compounds were prepared and 50 μl/well was added to 96 round deep well plates. • iii. [3H]-8-Hydroxy-DPAT was diluted with assay buffer to 2 nM (4X final concentration) and 50 μl/well was added to 96 round well plates. • 5. The plate was centrifuged at 1000 rpm for 30 secs and then agitated at 600 rpm, R.T. for 5 min. • 6. The plates were sealed and the plate was incubated at 27° C. for 90 min. • 7. The incubation was stopped by vacuum filtration onto GF/B filter plates followed by 4 times washing with ice-cold wash buffer (50 mM Tris, pH7.4). • 8. The plates were dried at 37° C. for 45 min. • 9. The filter plates were sealed and 40 μl/well of scintillation cocktail was added. • 10. The plate was read by using a Microbeta2 microplate counter.
• 1. For reference and test compounds, the results were expressed as % Inhibition, using the normalization equation: N=100−100×(U−C2)/(C1−C2), where U is the unknown value, C1 is the average of high controls, and C2 is the average of low controls. • 2. The IC50 was determined by fitting percentage of inhibition as a […] of compound concentrations with Hill equation using XLfit.

The next data set in a line: Plasma stability, human. Format: in vitro ADME. Particulars: 37° C.; for remaining at 0.5 h: 30 min, read-out: Remaining Percentage (%), 30 min; for remaining at 1 h: 60 min, read-out: Remaining Percentage (%), 60 min; for half-life: >255.85 if remaining at 60 min greater than 85%. On the procedure: (§1) • a. […] The final concentration of organic solvents was 0.5%. The assay was performed in duplicated. • b.
(§2) All calculations were carried out using Microsoft Excel.

A short description of the next data set: Plasma stability, rat. In kind it is in vitro ADME. Particulars: 37° C.; for remaining at 0.5 h: 30 min, read-out: Remaining Percentage (%), 30 min; for remaining at 1 h: 60 min, read-out: Remaining Percentage (%), 60 min; for half-life: >255.85 if remaining at 60 min greater than 85%. How it is done:
as §1, §2

Another data set in a line: Plasma stability, mouse. Format: in vitro ADME. Particulars: 37° C.; for remaining at 0.5 h: 30 min, read-out: Remaining Percentage (%), 30 min; for remaining at 1 h: 60 min, read-out: Remaining Percentage (%), 60 min; for half-life: >255.85 if remaining at 60 min greater than 85%. How it is done: as §1, §2

Chain of human 5-HT2A receptor (P28223 whole entry): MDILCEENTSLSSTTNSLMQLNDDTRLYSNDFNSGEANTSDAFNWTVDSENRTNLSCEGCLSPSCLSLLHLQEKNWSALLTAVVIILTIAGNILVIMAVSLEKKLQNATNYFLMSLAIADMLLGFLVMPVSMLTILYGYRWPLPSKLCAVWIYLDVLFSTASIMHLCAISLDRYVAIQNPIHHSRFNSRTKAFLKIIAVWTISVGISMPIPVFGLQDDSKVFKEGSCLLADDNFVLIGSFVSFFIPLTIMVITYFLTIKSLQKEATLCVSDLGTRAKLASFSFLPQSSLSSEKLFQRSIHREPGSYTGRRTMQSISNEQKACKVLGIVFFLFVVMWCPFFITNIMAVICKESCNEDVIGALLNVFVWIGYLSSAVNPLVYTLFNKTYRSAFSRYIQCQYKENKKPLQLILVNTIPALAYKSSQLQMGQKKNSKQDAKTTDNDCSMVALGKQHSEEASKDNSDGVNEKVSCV

As to `[2H]C([2H])([2H])N(CCN1CCc2ccc(OC)cc21)C([2H])([2H])[2H]` [Compound I-70, 2-(6-Methoxyindolin-1-yl)-N, N-bis(methyl-d3) ethan-1-amine], the figures for the IC50 at human 5-HT2A receptor and on human 5-HT1A receptor were 25.8 µM and 0.193 µM, respectively.
The matching figures for `COc1ccc2c(c1)N(C[C@H]1CCCN1)CC2` [(R)-I-59, (R)-6-Methoxy-1-(pyrrolidin-2-ylmethyl) indoline]: 15.3 µM and 0.085 µM.
The matching figures for `COc1cccc2c1CCN2C[C@H]1CCCN1C` [(R)-I-47, (R)-4-Methoxy-1-((1-methylpyrrolidin-2-yl)methyl) indoline]: over 30 µM and 15.3 µM.
The matching figures for `COc1cc2c(cc1OC)N(C[C@H]1CCCN1C)CC2` [(R)-I-34, (R)-5,6-dimethoxy-1-((1-methylpyrrolidin-2-yl)methyl) indoline]: over 30 µM and 7.75 µM.
Regarding `COc1ccc2c(c1)N(C[C@H]1CCCN1C)CC2` [(R)-I-58, (R)-6-Methoxy-1-((1-methylpyrrolidin-2-yl)methyl) indoline], the IC50 at human 5-HT2A receptor amounted to 6.53 µM. Moreover, at human 5-HT1A receptor, the IC50 stood at 0.013 µM. Moreover, in “Plasma stability, human”, the “Remaining Percentage (%), 0 min” value was 100.00%; the amount remaining at 0.5 h stood at 108%; the share remaining at 1 h came to 98.5%; the half-life is over 4.26 h. Besides, in “Plasma stability, rat”, the “Remaining Percentage (%), 0 min” value came out at 100.00%; the fraction remaining at 0.5 h was determined as 111%; the fraction remaining at 1 h is 110%; the half-life is over 4.26 h. Also, in “Plasma stability, mouse”, the “Remaining Percentage (%), 0 min” value worked out at 100.00%; the share remaining at 0.5 h was determined as 97.4%; the share remaining at 1 h was 105%; the half-life was over 4.26 h.
With `[2H]C([2H])([2H])N(CCN1CCc2ccccc21)C([2H])([2H])[2H]` [Compound I-71, 2-(Indolin-1-yl)-N,N-bis(methyl-d3) ethan-1-amine], the IC50 on human 5-HT2A receptor worked out at 15 µM; on human 5-HT1A receptor, 1.62 µM.
`[2H]C([2H])([2H])Oc1ccc2c(c1)N(C([2H])([2H])[C@H]1CCCN1C([2H])([2H])[2H])CC2` [(R)-I-28, (R)-6-(Methoxy-d3)-1-((1-(methyl-d3)pyrrolidin-2-yl)methyl-d2) indoline]: on human 5-HT2A receptor, the IC50 was 8.48 µM. In addition, the IC50 at human 5-HT1A receptor amounted to 0.00504 µM. Besides, in the data set “Plasma stability, human”, the “Remaining Percentage (%), 0 min” value worked out at 100.00%; the amount remaining at 0.5 h was determined as 95.1%; the amount remaining at 1 h came out at 94.2%; the half-life is over 4.26 h. Further, in the data set “Plasma stability, rat”, the “Remaining Percentage (%), 0 min” value came out at 100.00%; the amount remaining at 0.5 h amounted to 97.9%; the share remaining at 1 h is 94.7%; the half-life was over 4.26 h. Besides, in “Plasma stability, mouse”, the “Remaining Percentage (%), 0 min” value amounted to 100.00%; the amount remaining at 0.5 h turned out to be 99.2%; the share remaining at 1 h worked out at 93.3%; the half-life was over 4.26 h.
Take `[2H]C([2H])([2H])N1CCC[C@@H]1C([2H])([2H])N1CCc2ccccc21` [(R)-I-1, (R)-1-((1-(Methyl-d3)pyrrolidin-2-yl)methyl-d2) indoline]: the IC50 at human 5-HT2A receptor came out at 4.53 µM; at human 5-HT1A receptor, 0.444 µM.
As to `[2H]C([2H])([2H])N1CCC[C@@H]1C([2H])([2H])N1CCc2ccc(OC)cc21` [(R)-I-57, (R)-6-Methoxy-1-((1-(methyl-d3)pyrrolidin-2-yl)methyl-d2) indoline], the IC50 on human 5-HT2A receptor was determined as 7.96 µM; on human 5-HT1A receptor, 0.01 µM. Besides, the “Remaining Percentage (%), 0 min” value came to 100.00% in the data set “Plasma stability, human”; 100.00% in “Plasma stability, rat”; 100.00% in “Plasma stability, mouse”. For the same molecule, the fraction remaining at 0.5 h in “Plasma stability, human” was 108%; in “Plasma stability, rat”, 92.5%; in the data set “Plasma stability, mouse”, 105%. Moreover, the fraction remaining at 1 h in the data set “Plasma stability, human” turned out to be 113%; in the data set “Plasma stability, rat”, 89.7%; in “Plasma stability, mouse”, 100%. Besides, the half-life is over 4.26 h in the data set “Plasma stability, human”; over 4.26 h in the data set “Plasma stability, rat”; over 4.26 h in “Plasma stability, mouse”.
`COc1cccc2c1N(C[C@H]1CCCN1C)CC2` [(R)-I-46, (R)-7-Methoxy-1-((1-methylpyrrolidin-2-yl)methyl) indoline]: the half-inhibitory concentration (IC50) on human 5-HT2A receptor came to 2.46 µM. For the same molecule, the IC50 on human 5-HT1A receptor stood at 0.211 µM. For the same molecule, in the data set “Plasma stability, human”, the “Remaining Percentage (%), 0 min” value worked out at 100.00%; the fraction remaining at 0.5 h came to 104%; the amount remaining at 1 h worked out at 93%; the half-life is over 4.26 h. In the data set “Plasma stability, rat”, the “Remaining Percentage (%), 0 min” value worked out at 100.00%; the share remaining at 0.5 h worked out at 91.3%; the fraction remaining at 1 h came to 86.7%; the half-life was over 4.26 h. Besides, in “Plasma stability, mouse”, the “Remaining Percentage (%), 0 min” value is 100.00%; the fraction remaining at 0.5 h came to 103%; the share remaining at 1 h was 92.4%; the half-life is over 4.26 h.

The term IC50 denotes the concentration that inhibits the measured activity by half. By half-life is commonly meant the time in which the quantity being followed falls by half. Read a low half-life as rapid decline.
